Drawing on patent US10696693B2, “Fused imidazole derivatives as TGF-beta inhibitors” (Rigel Pharmaceuticals, Inc., priority 2014, dated 2020), this text covers IC50 for 27 compounds.

Read-outs that look alike come from different tables or passages of the source. Where only a bound is given, the exact number is not on record here.

The test system of assay [1] is TGF-β. The assay can be described thus: AlphaScreen SureFire p-SMAD3 (Ser423/425) assay, TGF-β-stimulated cells. It is filed as cell-based. Put shortly:
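The p-SMAD-3 (Ser423/425) SureFire assay measured phosphorylation of endogenous SMAD-3 in cell lysates. Cells were plated overnight in collagen-coated plates, exposed to three-fold serially diluted compounds for about 10 minutes, then stimulated with TGFβ. Lysates (5 μL) received acceptor bead mix for 2 hours, then donor beads for 1½ hours before AlphaScreen reading.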
(Bead proximity is the source of the signal in Alpha formats.)

In assay [2] the test system is GDF8. The assay can be described thus: AlphaScreen SureFire p-SMAD3 (Ser423/425) assay, GDF8-stimulated cells. It is filed as cell-based. Put shortly: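 Lysate (5 μL) went into 384-well shallow plates with 5 μL of Reaction Buffer, Activation Buffer and AlphaScreen Acceptor bead mix. Plates were sealed, kept dark and shaken for 2 hours at room temperature. Donor beads in dilution buffer (2 μL) were added for another 1½ hours, and p-SMAD3 signal was read on a Synergy-4 or Enspire reader.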

Where [3] appears, read: Mus musculus, MPC-11, read-out: TGF-β: inhibition of TGF-β signaling, TGF-β pSMAD (MPC-11), p-SMAD3 (Ser423/425) AlphaScreen in cell lysate, TGF-β stimulation.
The mark [4] stands for this setting: Mus musculus, MPC-11, read-out: GDF8: inhibition of GDF8 signaling, GDF pSMAD (MPC11), p-SMAD3 (Ser423/425) AlphaScreen in cell lysate, GDF8 stimulation.
[5] abbreviates: Mus musculus, p-SMAD3 (Ser423/425) AlphaScreen in cell lysate, MPC-11, TGF-β stimulation, read-out: TGF-β: inhibition of TGF-β signaling, TGF-β pSMAD (MPC-11).
[6] abbreviates: Mus musculus, MPC-11, p-SMAD3 (Ser423/425) AlphaScreen in cell lysate, MPC11, GDF8 stimulation, read-out: GDF8: inhibition of GDF8 signaling, GDF pSMAD (MPC11).
Setting [7] is: read-out: TGF-β: inhibition of TGF-β signaling, TGF-β pSMAD (MPC-11), p-SMAD3 (Ser423/425) AlphaScreen in cell lysate, TGF-β stimulation.
[8] abbreviates: read-out: GDF8: inhibition of GDF8 signaling, GDF pSMAD (MPC11), p-SMAD3 (Ser423/425) AlphaScreen in cell lysate, GDF8 stimulation.

`Cc1c(F)ccc(-c2nc3n(c2-c2ccc4[nH]ncc4c2)CCC3)c1Cl` [Compound 312, 5-(2-(2-chloro-4-fluoro-3-methylphenyl)-6,7-dihydro-5H-pyrrolo[1,2-a]imidazol-3-yl)-1H-indazole]: the IC50 in assay [1] (setting [3]) and in assay [2] (setting [4]) was more than 1000 nM in each case.

For `Cc1c(F)ccc(-c2nc3n(c2-c2ccc4ncsc4c2)CCC3)c1Cl` [Compound 313, 6-(2-(2-chloro-4-fluoro-3-methylphenyl)-6,7-dihydro-5H-pyrrolo[1,2-a]imidazol-3-yl)benzo[d]thiazole], the IC50 in assay [1] (setting [3]) and in assay [2] (setting [4]) was 100 to 1000 nM in each case.

Consider `Cc1c(F)ccc(-c2nc3n(c2-c2ccc4nccnc4c2)CCC3)c1Cl` [Compound 314, 6-(2-(2-chloro-4-fluoro-3-methylphenyl)-6,7-dihydro-5H-pyrrolo[1,2-a]imidazol-3-yl)quinoxaline], for which the IC50 in assay [1] (setting [5]) and in assay [2] (setting [6]) was more than 1000 nM throughout.

Regarding `Cc1c(F)ccc(-c2nc3n(c2-c2ccc4ncccc4c2)CCC3)c1Cl` [Compound 315, 6-(2-(2-chloro-4-fluoro-3-methylphenyl)-6,7-dihydro-5H-pyrrolo[1,2-a]imidazol-3-yl)quinoline], the IC50 in assay [1] (setting [3]) and in assay [2] (setting [4]) was more than 1000 nM each time.

Turning to `Cc1cc(-c2nc3n(c2-c2ccc4[nH]ncc4c2)CCC3)c(Cl)cc1F` [Compound 316, 5-(2-(2-chloro-4-fluoro-5-methylphenyl)-6,7-dihydro-5H-pyrrolo[1,2-a]imidazol-3-yl)-1H-indazole], the IC50 in assay [1] (setting [3]) and in assay [2] (setting [4]) was 100 to 1000 nM in each case.

As for `Cc1cc(-c2nc3n(c2-c2ccc4ncsc4c2)CCC3)c(Cl)cc1F` [Compound 317, 6-(2-(2-chloro-4-fluoro-5-methylphenyl)-6,7-dihydro-5H-pyrrolo[1,2-a]imidazol-3-yl)benzo[d]thiazole], the IC50 in assay [1] (setting [7]) lay in the range of 100 to 1000 nM; in assay [2] (setting [8]) it was 50 to 100 nM.

In the case of `Cc1cc(-c2nc3n(c2-c2ccc4nccnc4c2)CCC3)c(Cl)cc1F` [Compound 318, 6-(2-(2-chloro-4-fluoro-5-methylphenyl)-6,7-dihydro-5H-pyrrolo[1,2-a]imidazol-3-yl)quinoxaline], the IC50 in assay [1] (setting [7]) fell in the range of 100 to 1000 nM; in assay [2] (setting [8]), 50 to 100 nM.

For the compound `Cc1cc(-c2nc3n(c2-c2ccc4ncccc4c2)CCC3)c(Cl)cc1F` [Compound 319, 6-(2-(2-chloro-4-fluoro-5-methylphenyl)-6,7-dihydro-5H-pyrrolo[1,2-a]imidazol-3-yl)quinoline], the figures for the IC50 in assay [1] (setting [3]) and in assay [2] (setting [8]) were more than 1000 nM and 100 to 1000 nM, respectively.

Consider `O=S(=O)(Nc1cccc(-c2nc3n(c2-c2ccc4[nH]ncc4c2)CCC3)c1)c1ccccc1F` [Compound 320, N-(3-(3-(1H-indazol-5-yl)-6,7-dihydro-5H-pyrrolo[1,2-a]imidazol-2-yl)phenyl)-2-fluorobenzenesulfonamide], for which the IC50 in assay [1] (setting [3]) and in assay [2] (setting [4]) was more than 1000 nM throughout.

`Cc1cc(-c2nc3n(c2-c2ccc4nccnc4c2)CCC3)c(Cl)cc1F` [Compound 321, 6-(2-(2-chloro-4-fluoro-5-methylphenyl)-6,7-dihydro-5H-pyrrolo[1,2-a]imidazol-3-yl)quinoxaline]: the IC50 in assay [1] (setting [7]) and in assay [2] (setting [8]) was more than 1000 nM each time.

As to `Cc1cc(-c2nc3n(c2-c2ccc4ncccc4c2)CCC3)c(Cl)cc1F` [Compound 322, 6-(2-(2-chloro-4-fluoro-5-methylphenyl)-6,7-dihydro-5H-pyrrolo[1,2-a]imidazol-3-yl)quinoline], the IC50 in assay [1] (setting [7]) and in assay [2] (setting [8]) was more than 1000 nM each time.

For `Cc1cc(-c2nc3n(c2-c2ccc4ncsc4c2)CCC3)c(Cl)cc1F` [Compound 323, 6-(2-(2-chloro-4-fluoro-5-methylphenyl)-6,7-dihydro-5H-pyrrolo[1,2-a]imidazol-3-yl)benzo[d]thiazole], the IC50 in assay [1] (setting [7]) and in assay [2] (setting [8]) was more than 1000 nM throughout.

`Fc1ccc(-c2nc3n(c2-c2ccc4[nH]ncc4c2)CC2(CCCC2)C3)cc1` [Compound 324, 2′-(4-fluorophenyl)-3′-(1H-indazol-5-yl)-5′H,7′H-spiro[cyclopentane-1,6′-pyrrolo[1,2-a]imidazole]]: the IC50 in assay [1] (setting [3]) and in assay [2] (setting [4]) was more than 1000 nM each time.

In the case of `Fc1ccc(-c2nc3n(c2-c2ccc4ncsc4c2)CC2(CCCC2)C3)cc1` [Compound 325, 6-(2′-(4-fluorophenyl)-5′H,7′H-spiro[cyclopentane-1,6′-pyrrolo[1,2-a]imidazol]-3′-yl)benzo[d]thiazole], the IC50 in assay [1] (setting [3]) and in assay [2] (setting [4]) was more than 1000 nM throughout.

Take `Fc1ccc(-c2nc3n(c2-c2ccc4nccnc4c2)CC2(CCCC2)C3)cc1` [Compound 326, 2′-(4-fluorophenyl)-3′-(quinoxalin-6-yl)-5′H,7′H-spiro[cyclopentane-1,6′-pyrrolo[1,2-a]imidazole]]: the IC50 in assay [1] (setting [3]) and in assay [2] (setting [4]) was more than 1000 nM in each case.

Turning to `Fc1ccc(-c2nc3n(c2-c2ccc4ncccc4c2)CC2(CCCC2)C3)cc1` [Compound 327, 2′-(4-fluorophenyl)-3′-(quinolin-6-yl)-5′H,7′H-spiro[cyclopentane-1,6′-pyrrolo[1,2-a]imidazole]], the IC50 in assay [1] (setting [3]) and in assay [2] (setting [4]) was more than 1000 nM each time.

As to `Cc1c(F)ccc(-c2nc3n(c2-c2ccc4[nH]ncc4c2)CCC3)c1C` [Compound 328, 5-(2-(4-fluoro-2,3-dimethylphenyl)-6,7-dihydro-5H-pyrrolo[1,2-a]imidazol-3-yl)-1H-indazole], the IC50 is more than 1000 nM in assay [1] (setting [3]) and 100 to 1000 nM in assay [2] (setting [4]).

On to `Cc1c(F)ccc(-c2nc3n(c2-c2ccc4ncsc4c2)CCC3)c1C` [Compound 329, 6-(2-(4-fluoro-2,3-dimethylphenyl)-6,7-dihydro-5H-pyrrolo[1,2-a]imidazol-3-yl)benzo[d]thiazole], for which the IC50 in assay [1] (setting [3]) was more than 1000 nM; in assay [2] (setting [4]), 100 to 1000 nM.

As to `Cc1c(F)ccc(-c2nc3n(c2-c2ccc4nccnc4c2)CCC3)c1C` [Compound 330, 6-(2-(4-fluoro-2,3-dimethylphenyl)-6,7-dihydro-5H-pyrrolo[1,2-a]imidazol-3-yl)quinoxaline], the IC50 in assay [1] (setting [3]) and in assay [2] (setting [4]) was more than 1000 nM in each case.

On to `Cc1c(F)ccc(-c2nc3n(c2-c2ccc4ncccc4c2)CCC3)c1C` [Compound 331, 6-(2-(4-fluoro-2,3-dimethylphenyl)-6,7-dihydro-5H-pyrrolo[1,2-a]imidazol-3-yl)quinoline], for which the IC50 in assay [1] (setting [3]) and in assay [2] (setting [4]) was more than 1000 nM throughout.

On to `O=C(O)C1CCC2(CC1)Cc1nc(-c3ccc(F)cc3)c(-c3ccc4ncsc4c3)n1C2` (stereo not drawn) [Compound 332, 3′-(benzo[d]thiazol-6-yl)-2′-(4-fluorophenyl)-5′H,7′H-spiro[cyclohexane-1,6′-pyrrolo[1,2-a]imidazole]-4-carboxylic acid], for which the IC50 was more than 1000 nM in assay [1] (setting [3]) and 100 to 1000 nM in assay [2] (setting [4]).

For `CCOC(=O)C1CCC2(CC1)Cc1nc(-c3ccc(F)cc3)c(-c3ccc4nccnc4c3)n1C2` (stereo not drawn) [Compound 333, Ethyl 2′-(4-fluorophenyl)-3′-(quinoxalin-6-yl)-5′H,7′H-spiro[cyclohexane-1,6′-pyrrolo[1,2-a]imidazole]-4-carboxylate], the IC50 in assay [1] (setting [3]) and in assay [2] (setting [4]) was more than 1000 nM in each case.

Take `O=C(O)C1CCC2(CC1)Cc1nc(-c3ccc(F)cc3)c(-c3ccc4nccnc4c3)n1C2` (stereo not drawn) [Compound 334, 2′-(4-fluorophenyl)-3′-(quinoxalin-6-yl)-5′H,7′H-spiro[cyclohexane-1,6′-pyrrolo[1,2-a]imidazole]-4-carboxylic acid]: the IC50 in assay [1] (setting [3]) and in assay [2] (setting [4]) was more than 1000 nM in each case.

In the case of `OCC1CCC2(CC1)Cc1nc(-c3ccc(F)cc3)c(-c3ccc4ncsc4c3)n1C2` (stereo not drawn) [Compound 335, (3′-(benzo[d]thiazol-6-yl)-2′-(4-fluorophenyl)-5′H,7′H-spiro[cyclohexane-1,6′-pyrrolo[1,2-a]imidazol]-4-yl)methanol], the IC50 in assay [1] (setting [3]) and in assay [2] (setting [4]) was more than 1000 nM throughout.

Turning to `OCC1CCC2(CC1)Cc1nc(-c3ccc(F)cc3)c(-c3ccc4nccnc4c3)n1C2` (stereo not drawn) [Compound 336, (2′-(4-fluorophenyl)-3′-(quinoxalin-6-yl)-5′H,7′H-spiro[cyclohexane-1,6′-pyrrolo[1,2-a]imidazol]-4-yl)methanol], the IC50 in assay [1] (setting [3]) and in assay [2] (setting [4]) was more than 1000 nM in each case.

Turning to `Fc1ccc(Cl)cc1-c1nc2n(c1-c1ccc3nccnc3c1)CCC2` [Compound 337, 6-(2-(5-chloro-2-fluoropheny)-6,7-dihydro-5H-pyrrolo[1,2-a]imidazol-3-yl)quinoxaline], the IC50 in assay [1] (setting [5]) and in assay [2] (setting [6]) was less than 50 nM each time.

Turning to `Fc1ccc(Cl)cc1-c1nc2n(c1-c1ccc3ncccc3c1)CCC2` [Compound 338, 6-(2-(5-chloro-2-fluoropheny)-6,7-dihydro-5H-pyrrolo[1,2-a]imidazol-3-yl)quinoline], the IC50 in assay [1] (setting [5]) and in assay [2] (setting [6]) was less than 50 nM throughout.
